Experimental data: US20050261365A1, “Transthyretin stabilization” (The Scripps Research Institute, priority 2004, published 2005)
“And” between values parts separate entries of the source, which are not always exact repeats. Identical values can stand only once.

How the values were obtained:
[1] = biological target: T1, TTR in human blood plasma (Homo sapiens, UniProt P02766); assay: plasma TTR binding selectivity, antibody capture method; details: inhibitor 10.8 μM, 24 h, 37° C.
T1 construct: from tissue; host or cells: human blood plasma
Method: Inhibitor binding selectivity to TTR in human blood plasma was assessed using a previously established antibody capture method (Purkey, H. E.; et al. Proc. Natl. Acad. Sci. USA 2001, 98, 5566-5571). In this evaluation, inhibitors (10.8 μM, ˜2-3× the natural concentration of TTR) are incubated in human blood plasma for 24 h at 37° C. Quenched sepharose resin is then added to the plasma to remove any small molecules that would bind to the resin as opposed to TTR. TTR and any TTR-bound small molecule is then immunocaptured using a polyclonal TTR antibody covalently attached to sepharose resin. After washing the resin (5×10 min washes), the antibody-TTR complex is dissociated at high pH and analyzed by RP-HPLC. The relative stoichiometry between TTR and inhibitor is then calculated from their HPLC peak areas using standard curves.
The procedures used for bacterial expression of TTR (Lai, Z.; et al. Biochemistry 1996, 35, 6470-6482), the stagnant fibril formation assay (Colon, W.; Kelly, J. W. Biochemistry 1992, 31, 8654-8660; Lai, Z.; et al. Biochemistry 1996, 35, 6470-6482), the blood plasma binding selectivity assay (Purkey, H. E.; et al. Proc. Natl. Acad. Sci. USA 2001, 98, 5566-5571), and analytical ultracentrifugation (Lashuel, H. A.; et al. Biochemistry 1998, 37, 17851-17864) have all been described in detail previously.

WT-TTR [2] = biological target: T2, WT-TTR (Homo sapiens, UniProt P02766); details: inhibitor 7.2 μM, WT-TTR 3.6 μM, pH 4.4, 72 h; cited from earlier work
T2 construct: made in house

[3] = precipitation of small molecules under acid-mediated amyloidogenic conditions in the absence of TTR; type: physicochemical; details: 3.6 μM, pH 4.4, 37° C., 72 h
Method: TTR amyloid inhibition efficacy was probed using a stagnant fibril formation assay described previously, wherein partial denaturation was triggered by acidification (pH 4.4, 37° C.) (Colon, W.; Kelly, J. W. Biochemistry 1992, 31, 8654-8660). Briefly, a test compound (7.2 or 3.6 μM) is incubated with TTR (3.6 μM) for 30 min in pH 7 buffer. Amyloidogenesis is then initiated by lowering to pH 4.4, where maximal fibril formation is observed with WT-TTR after 72 h (37° C.). […] From experience we know that excellent inhibitors allow <10% fibril formation at a small molecule concentration of 7.2 μM and <40% fibril formation at a concentration equal to that of WT-TTR (3.6 μM) (Hammarstrom, P.; et al. Science 2003, 299, 713-716; Klabunde, T.; et al. Nature Struct. Biol. 2000, 7, 312-321; Razavi, H.; et al. Angew Chem 2003, 42, 2758-2761; Miroy, G. J.; et al. Proc. Natl. Acad. Sci. USA 1996, 93, 15051-15056; Peterson, S. A.; et al. Proc. Natl. Acad. Sci. USA 1998, 95, 12956-12960; Baures, P. W.; et al. Bioorg. Med. Chem. 1998, 6, 1389-1401; Baures, P. W.; et al. Bioorg. Med. Chem. 1999, 7, 1339-1347; Petrassi, H. M.; et al. J. Am. Chem. Soc. 2000, 122, 2178-2192; McCammon, M. G.; et al. Structure 2002, 10, 851-863; Oza, V. B.; et al. J. Med. Chem. 2002, 45, 321-332; Saccheftini, J. C.; et al. Nature Rev. Drug Disc. 2002, 1, 267-275; Green, N. S.; et al. J. Am. Chem. Soc. 2003, 125, 13404-13414; Adamski-Werner, S. L.; et al. J. Med. Chem. 2004, 47, 355-374; Miller Sean, R.; et al. Lab. Inv. 2004, 84, 545-552). […] Therefore, when both the ligand and TTR are at equal concentrations, a population of TTR•I, TTR•I2 and unliganded TTR is observed, dictated by the dissociation constants. It is now established by other studies that inhibitor occupancy of only one of the two TTR binding sites is sufficient to stabilize the entire tetramer against amyloidogenesis (Wiseman, R. L.; et al. J. Am. Chem. Soc. 2005, in press). This is further supported by the observation herein that twenty-six of these dibenzofurans are excellent TTR amyloidogenesis inhibitors (<40% fibril formation) at a concentration equal to that of TTR (3.6 μM each, FIG. 3).

TTR = biological target: T3, TTR (Homo sapiens, UniProt P02766); assay: analytical ultracentrifugation of TTR quaternary structure under amyloidogenic conditions; details: 27 at 7.2 μM, TTR 3.6 μM, 72 h at pH 4.4, 37° C.; tetramer expected 55.0 kDa
T3 construct: made in house
Method: To ensure that these C1-arylated dibenzofurans inhibit TTR fibril formation by native state stabilization (i.e. tetramer stabilization), we studied the TTR quaternary structure by analytical ultracentrifugation after a preincubation period of 72 h under amyloidogenic conditions (pH 4.4, 37° C.). […] In the absence of 27, TTR aggregated into very high molecular weight oligomers that sedimented rapidly in the ultracentrifugation experiment (data not shown). […]
(§1) FIG. 8 is a plot of the absorbance at 280 nm versus distance from the center in the sedimentation velocity study on TTR ([…]) after being preincubated with 27 ([…]) and after another incubation period where the pH was dropped to 4.4 for 72 h, a time frame that results in maximal amyloid formation in the absence of inhibitor. […]
as §1, with “FIG. 9” for “FIG. 8”, “the equilibrium ultracentrifugation studies” for “the sedimentation velocity study”

WT-TTR tetramer = biological target: T4, WT-TTR tetramer (Homo sapiens, UniProt P02766); assay: time course analysis of WT-TTR tetramer dissociation by linked monomer unfolding in urea; type: biochemical; details: inhibitor 7.2 and 3.6 μM, TTR 3.6 μM, far-UV CD
T4 construct: made in house
From the text: The ability of these inhibitors to impose kinetic stability on tetrameric TTR is best evaluated by assessing the rate of TTR tetramer dissociation (Hammarstrom, P.; et al. Science 2003, 299, 713-716; Hammarstrom, P.; et al. Proc. Natl. Acad. Sci. USA 2002, 99, 16427-16432). Under acidic conditions tetramer dissociation leads to amyloidogenesis, whereas in the presence of chaotropes (6M urea), tetramer dissociation leads to monomer unfolding. The influence of inhibitors 25, 47 and 64, representing the three structural classes of dibenzofuran-based inhibitors, on the rates of tetramer dissociation under acid- and urea-mediated denaturing conditions was probed. […] The rate of TTR tetramer dissociation in 6M urea is easily monitored by linking the slow quaternary structural changes to rapid tertiary structural changes that are easily monitored by spectroscopic methods (Hammarstrom, P.; et al. Proc. Natl. Acad. Sci. USA 2002, 99, 16427-16432).
Time course analysis of WT-TTR tetramer dissociation inhibition by compounds 25, 47, and 64 evaluated by linked-monomer unfolding in urea. Compounds 25, 47, and 64 were dissolved in DMSO to provide 10 mM primary stock solutions, from which 10-fold EtOH dilutions yielded 1 mM secondary stock solutions. 200 μL of 1.0 mg/mL (18 μM) WT-TTR solution (50 mM sodium phosphate, 100 mM KCl, and 1 mM EDTA, pH 7.2), and either 7.2 or 3.6 μL (2× and 1×, respectively) of 1 mM inhibitor secondary stock solutions were added to 2 mL eppendorf tubes, vortexed briefly, and incubated for 15 min at 25° C. 100 μL of the TTR•inhibitor solutions were added to 900 μL of urea buffer (6.67 M urea, 50 mM sodium phosphate, 100 mM KCl, 1 mM EDTA, pH 7.2), and the final 1 mL solutions were vortexed again and incubated in the dark at 25° C. without agitation. At 0, 4, 11, 24, 49, 73, 97, 122, 146, and 170 h time points after mixing with urea, the circular dichroism spectra were measured between […], with scanning every 0.5 nm and averaging for 5 s. […] Control samples containing 7.2 μL of 10% DMSO in EtOH were prepared and analyzed as above for comparison. […] TTR tetramer dissociation is linked to the rapid (˜500,000× faster) monomer denaturation as measured through this β-sheet loss (Hammarstrom, P.; et al. Proc. Natl. Acad. Sci. USA 2002, 99, 16427-16432).
FIG. 11 is a plot of the timecourse analysis of WT-TTR (3.6 μM) tetramer dissociation (6.0 M urea) in the absence (▴) and presence of 7.2 μM (⋄) and 3.6 μM (◯) concentrations of inhibitors 25, 47, and 64 (see color scheme within Figure to differentiate inhibitors). Slow tetramer dissociation is not detectable by far-UV CD spectroscopy, but this process is linked to rapid (˜500,000× faster) monomer denaturation as monitored by loss of β-sheet content easily followed by circular dichroism spectroscopy. […]

WT-TTR [4] = biological target: T2, WT-TTR; assay: time course analysis of WT-TTR fibril formation inhibition; type: biochemical
Method: Time course analysis of WT-TTR fibril formation inhibition by compounds 25, 47, and 64. Compounds 25, 47, and 64 were dissolved in DMSO to provide 7.2 mM primary stock solutions (10× stocks), from which 5- and 10-fold DMSO dilutions yielded 1.44 mM (2×) and 0.72 mM (1×) secondary stock solutions, respectively. 495 μL of 0.4 mg/mL (7.2 μM) WT-TTR solution (10 mM sodium phosphate, 100 mM KCl, and 1 mM EDTA, pH 7.2), and 5 μL of either the 1.44 or 0.72 mM inhibitor secondary stock solutions were added to disposable UV cuvettes, vortexed briefly, then incubated for 30 min at 25° C. The pH was then adjusted to 4.4 with addition of 500 μL of acidic buffer (100 mM acetate, 100 mM KCl, 1 mM EDTA, pH 4.2), and the final 1 mL solutions were vortexed again and incubated in the dark at 37° C. without agitation. At 0, 4, 8, 12, 25, 49, 74, 100, 122, 145, and 169 h time points after acidification, the solutions were vortexed and the turbidity at 500 nm was measured. Control samples containing 5 μL of pure DMSO were prepared and analyzed as above for comparison. Small molecule and TTR control samples were prepared in groups of 10 to prevent disturbance of the cuvettes during incubation. Samples were discarded after their turbidities were measured.
FIG. 10 is a plot of the timecourse analysis of WT-TTR (3.6 μM) fibril formation mediated by partial acid denaturation in the absence (▴) and presence of 7.2 μM (⋄) and 3.6 μM (◯) inhibitors 25, 47, and 64, as measured by turbidity at 500 nm (see color scheme within Figure to differentiate inhibitors). It is hard to discern which compound is most efficacious in the black and white plot.

| Compound | binding selectivity to TTR in human blood plasma [1] | decrease of the extent of WT-TTR amyloid formation (WT-TTR [2]) [%] | precipitation in the absence of TTR [3] | hydrodynamic molecular weight of TTR by equilibrium analytical ultracentrifugation (TTR) | hydrodynamic molecular weight of TTR by sedimentation velocity (TTR) | rate of TTR tetramer dissociation in 6M urea (WT-TTR tetramer) | order of fibrils formed at the end of the time course (WT-TTR [4]; after 169 hours, FIG. 10) | rate of TTR amyloidogenesis mediated by partial acidification relative to control (WT-TTR [4]; inhibitor 7.2 and 3.6 μM, WT-TTR 3.6 μM, pH 4.4, turbidity at 500 nm) |
| --- | --- | --- | --- | --- | --- | --- | --- | --- |
| O=C(O)c1cccc2c1oc1c(C(=O)O)cccc12 [Compound 1, dibenzofuran-4,6-dicarboxylic acid, reference compound] | no measurable binding selectivity | 90 |  |  |  |  |  |  |
| O=C(O)c1cccc2c1oc1c(C(=O)O)ccc(Nc3cccc(Cl)c3)c12 [Compound 27] |  |  | no measurable precipitation | 55.1±0.4 kDa and 55.0±0.2 kDa | 57.1±0.3 kDa and 57.1±0.2 kDa |  |  |  |
| O=C(O)c1cccc2c1oc1c(C(=O)O)ccc(Oc3cc(Cl)cc(Cl)c3)c12 [Compound 47] |  |  | no measurable precipitation |  |  | markedly slowed in a dose-dependent fashion | shows the most fibrils formed | dramatically slowed in a dose-dependent fashion |
